Reference: the NIST ThermoML archive (doi:10.1016/j.fluid.2015.02.007)
Numbers after ± are expanded uncertainties.

Key:
[1] = Crystal; DTA
[2] = Molar enthalpy of transition or fusion; settings: Crystal; DSC

SMILES | Normal melting temperature [1] | Molar enthalpy of transition or fusion [2]
O=C(O)c1cccnc1Nc1cccc(C(F)(F)F)c1 | 204.00 ± 1.5 °C | 8.38 ± 0.182 kcal/mol
Cc1c(Cl)cccc1Nc1ccccc1C(=O)O [2-[(3-chloro-2-methylphenyl)amino]benzoic acid] | 214.00 ± 1.1 °C | 7.52 ± 0.165 kcal/mol
O=C(O)c1ccccc1Nc1cccc(Cl)c1Cl [clofenamic acid] | 171.00 ± 0.88 °C | 7.26 ± 0.16 kcal/mol
